Source: patent publication US20260242373A1, “NBD1 MODULATORS AND METHODS OF USING THE SAME” (Sionna Therapeutics Inc., priority 2023, published 2026)

These compounds were tested on NBD1 (assay: Aggregation analysis of NBD1 thermal stability by differential static light scattering (DSLS)). Settings: 100 μM compound; ΔTagg versus DMSO control.
Type: binding, Human
Experimental: Purified recombinant NBD1 was produced using previously described methods (A. Schmidt, J. L. Mendoza, P. J. Thomas (2011) Biochemical and Biophysical Approaches to Probe CFTR Structure (365-376) M. D. Amaral, K. Kunzelmann (eds.), Cystic Fibrosis, Methods in Molecular Biology 741, Springer Science+Business Media). The effect of test compounds on thermal stability of NBD1 was evaluated by differential static light scattering (DSLS) using the Harbinger Stargazer-384 instrument (Epiphyte Three, Toronto, Canada). Test compounds were dissolved and diluted to desired concentrations in 100% DMSO. The compounds or DMSO controls (100 nL) were stamped into wells of a […] low volume optical plate (Corning Inc., Corning, NY) using the Echo 555 acoustic liquid handler (Labcyte Inc., San Jose, CA).
NBD1 protein was diluted to 0.2 mg/ml in S200 buffer (50 mM Tris-HCl, 150 mM NaCl, 5 mM MgCl2, 2 mM ATP, 2 mM DTT, pH7.6) containing 1% glycerol. 10 uL of protein solution was aliquoted into the 384-well plate harboring the test compounds and 10 uL mineral oil was overlayed onto the protein solution, using the epMotion robotic liquid handler (Eppendorf North America, Hauppauge, NY). After placing into the Stargazer instrument, the plate was heated at 1° C. per minute to 70° C. Images were captured from 25° C. to 70° C. every 0.5° C. At the end of the experiment run, instrument software integrated image files and analyzed data automatically. A […] regression curve was generated for each well, representing the increase in light scattering over time. A temperature of aggregation (Tagg) was calculated based on the inflection point of the curve. To better compare data across experiments the average Tagg for DMSO control wells was calculated and subtracted from values for wells containing compounds to obtain a “ΔTagg” value. These ΔTagg values reflect stabilizing efficacy of the compounds.

| SMILES | DSLS NBD1/3D Human Stability delta-T (° C.) @ 100 (μM) |
| --- | --- |
| O[C@H](Cc1cncs1)c1c[nH]c(-c2cccc(Oc3ccc4[nH]ccc4c3)c2)n1 (single isomer, unassigned) [Compound 23] | B (B: 4-8° C.) |
| O[C@@H](Cc1cncs1)c1c[nH]c(-c2cccc(Oc3ccc4[nH]ccc4c3)c2)n1 (single isomer, unassigned) [Compound 24] | C (C: ≤4° C.) |
| C[C@H](c1nc(-c2cc(Oc3c(F)cc4[nH]ccc4c3F)ccc2F)n(C)n1)c1ccc(CCC(=O)O)s1 (single isomer, unassigned) [Compound 45] | A (A: T ≥8° C.) |
| Cc1c(Oc2ccc(F)c(-c3nc(Cc4csc(CCC(=O)O)n4)c[nH]3)c2)c(F)cc2[nH]ccc12 [Compound 1, 3-(4-((2-(2-fluoro-5-((6-fluoro-4-methyl-1H-indol-5-yl)oxy)phenyl)-1H-imidazol-4-yl)methyl)thiazol-2-yl)propanoic acid] | B (B: 4-8° C.) |
| O=C(O)CCc1ncc(Cc2cnc(-c3cc(Oc4c(F)cc5[nH]ccc5c4F)ccc3F)[nH]2)s1 [Compound 2, 3-(5-((2-(5-((4,6-difluoro-1H-indol-5-yl)oxy)-2-fluorophenyl)-1H-imidazol-5-yl)methyl)thiazol-2-yl)propanoic acid] | B (B: 4-8° C.) |
| NC(=O)CCc1ncc(Cc2cnc(-c3cc(Oc4c(F)cc5[nH]ccc5c4F)ccc3F)[nH]2)s1 [Compound 3, 3-(5-((2-(5-((4,6-difluoro-1H-indol-5-yl)oxy)-2-fluorophenyl)-1H-imidazol-5-yl)methyl)thiazol-2-yl)propanamide] | C (C: ≤4° C.) |
| O=C(O)CCn1ccc(Cc2cnc(-c3cc(Oc4c(F)cc5[nH]ccc5c4F)ccc3F)[nH]2)n1 [Compound 5, 3-(3-((2-(5-((4,6-difluoro-1H-indol-5-yl)oxy)-2-fluorophenyl)-1H-imidazol-5-yl)methyl)-1H-pyrazol-1-yl)propanoic acid] | B (B: 4-8° C.) |
| Cc1c(Oc2ccc(F)c(-c3ccn(Cc4cnc(CCC(N)=O)s4)n3)c2)c(F)cc2[nH]ccc12 [Compound 6] | C (C: ≤4° C.) |
| Cc1c[nH]c2cc(F)c(Oc3ccc(F)c(-c4ccn(Cc5cnc(CCC(N)=O)s5)n4)c3)cc12 [Compound 7, 3-(5-((3-(2-fluoro-5-((6-fluoro-3-methyl-1H-indol-5-yl)oxy)phenyl)-1H-pyrazol-1-yl)methyl)thiazol-2-yl)propanamide] | C (C: ≤4° C.) |
| Cc1ccc(Cc2nnc(-c3cccc(Oc4cc5cc[nH]c5cn4)c3)[nH]2)s1 [Compound 8, 5-(3-(5-((5-methylthiophen-2-yl)methyl)-4H-1,2,4-triazol-3-yl)phenoxy)-1H-pyrrolo[2,3-c]pyridine] | C (C: ≤4° C.) |
| Cc1cc(Cc2nnc(-c3cccc(Oc4cc5cc[nH]c5cn4)c3)[nH]2)cs1 [Compound 9, 5-(3-(5-((5-methylthiophen-3-yl)methyl)-4H-1,2,4-triazol-3-yl)phenoxy)-1H-pyrrolo[2,3-c]pyridine] | C (C: ≤4° C.) |
| c1cc(Oc2ccc3[nH]ccc3c2)cc(-c2nnc(Cc3ccsc3)[nH]2)c1 [Compound 11, 5-(3-(5-(thiophen-3-ylmethyl)-4H-1,2,4-triazol-3-yl)phenoxy)-1H-indole] | C (C: ≤4° C.) |
| c1cc(Oc2ccc3[nH]ccc3c2)cc(-c2nnc(Cc3nccs3)[nH]2)c1 [Compound 12, 2-((5-(3-((1H-indol-5-yl)oxy)phenyl)-4H-1,2,4-triazol-3-yl)methyl)thiazole] | C (C: ≤4° C.) |
| c1cc(Oc2ccc3[nH]ccc3c2)cc(-c2nnc(Cc3cscn3)[nH]2)c1 [Compound 13, 4-((5-(3-((1H-indol-5-yl)oxy)phenyl)-4H-1,2,4-triazol-3-yl)methyl)thiazole] | C (C: ≤4° C.) |
| c1cc(Oc2ccc3[nH]ccc3c2)cc(-c2nnc(Cc3cncs3)[nH]2)c1 [Compound 14, 5-((5-(3-((1H-indol-5-yl)oxy)phenyl)-4H-1,2,4-triazol-3-yl)methyl)thiazole] | C (C: ≤4° C.) |
| Cc1csc(Cc2nnc(-c3cccc(Oc4ccc5[nH]ccc5c4)c3)[nH]2)n1 [Compound 15, 2-((5-(3-((1H-indol-5-yl)oxy)phenyl)-4H-1,2,4-triazol-3-yl)methyl)-4-methylthiazole] | C (C: ≤4° C.) |
| Cc1cnc(Cc2nnc(-c3cccc(Oc4ccc5[nH]ccc5c4)c3)[nH]2)s1 [Compound 16, 2-((5-(3-((1H-indol-5-yl)oxy)phenyl)-4H-1,2,4-triazol-3-yl)methyl)-5-methylthiazole] | C (C: ≤4° C.) |
| Cc1nc(Cc2nnc(-c3cccc(Oc4ccc5[nH]ccc5c4)c3)[nH]2)cs1 [Compound 17, 4-((5-(3-((1H-indol-5-yl)oxy)phenyl)-4H-1,2,4-triazol-3-yl)methyl)-2-methylthiazole] | C (C: ≤4° C.) |
| Cc1ncc(Cc2nnc(-c3cccc(Oc4ccc5[nH]ccc5c4)c3)[nH]2)s1 [Compound 18, 5-((5-(3-((1H-indol-5-yl)oxy)phenyl)-4H-1,2,4-triazol-3-yl)methyl)-2-methylthiazole] | B (B: 4-8° C.) |
| Clc1ccc(Cc2n[nH]c(-c3cccc(Oc4cc5cc[nH]c5cn4)c3)n2)s1 [Compound 19, 5-(3-(3-((5-chlorothiophen-2-yl)methyl)-1H-1,2,4-triazol-5-yl)phenoxy)-1H-pyrrolo[2,3-c]pyridine] | C (C: ≤4° C.) |
| Cc1ccc(C(O)c2c[nH]c(-c3cccc(Oc4ccc5[nH]ccc5c4)c3)n2)s1 (centres unmarked) [Compound 20, (2-(3-((1H-indol-5-yl)oxy)phenyl)-1H-imidazol-4-yl)(5-methylthiophen-2-yl)methanol] | B (B: 4-8° C.) |
| OC(c1c[nH]c(-c2cccc(Oc3ccc4[nH]ccc4c3)c2)n1)c1nccs1 (centres unmarked) [Compound 21, (2-(3-((1H-indol-5-yl)oxy)phenyl)-1H-imidazol-4-yl)(thiazol-2-yl)methanol] | B (B: 4-8° C.) |
| Cc1cnc(C(O)c2c[nH]c(-c3cccc(Oc4ccc5[nH]ccc5c4)c3)n2)s1 (centres unmarked) [Compound 22, (2-(3-((1H-indol-5-yl)oxy)phenyl)-1H-imidazol-4-yl)(5-methylthiazol-2-yl)methanol] | B (B: 4-8° C.) |
| Cn1cc(Cc2nnc(-c3cccc(Oc4ccc5[nH]ccc5c4)c3)[nH]2)cn1 [Compound 25, 5-(3-(5-((1-methyl-1H-pyrazol-4-yl)methyl)-4H-1,2,4-triazol-3-yl)phenoxy)-1H-indole] | C (C: ≤4° C.) |
| Cn1nccc1C(O)c1cnc(-c2cccc(Oc3ccc4[nH]ccc4c3)c2)[nH]1 (centres unmarked) [Compound 26, (2-(3-((1H-indol-5-yl)oxy)phenyl)-1H-imidazol-5-yl)(1-methyl-1H-pyrazol-5-yl)methanol] | C (C: ≤4° C.) |
| Cn1cc(C(O)c2cnc(-c3cccc(Oc4ccc5[nH]ccc5c4)c3)[nH]2)cn1 (centres unmarked) [Compound 27, (2-(3-((1H-indol-5-yl)oxy)phenyl)-1H-imidazol-5-yl)(1-methyl-1H-pyrazol-4-yl)methanol] | B (B: 4-8° C.) |
